Laboratory results published in ChEMBL document CHEMBL4808206, “Novel Substituted 3,4-Dihydroquinazoline Derivatives for Treating Hepatitis B Virus Infection” (ACS Med Chem Lett, 2021).

What follows are compounds tested on Hepatitis B virus (assay: Antiviral activity against HBV infected in human HepDES19 cells assessed as reduction in HBV cccDNA production by measuring inhibition of HBeAg secretion incubated for 5 days by ELISA). Details: HepDES19, 120 h.
Format: functional, organism-based

SMILES	IC50
COC(=O)C1NC(c2ccc(Br)cc2)=Nc2c(Cl)cccc21 (stereo unspecified)	330 nM
NC(=O)C1NC(c2ccc(Br)cc2)=Nc2c(Cl)cccc21 (stereo unspecified)	70 nM
CC1(C(=O)O)NC(c2ccc(Br)cc2)=Nc2c(Cl)cccc21 (stereo unspecified)	130 nM
NC(=O)C1NC(c2cccc(Br)c2)=Nc2cc(C(F)(F)F)ccc21 (stereo unspecified)	260 nM

Compounds with a lower IC50, results first:

IC50	SMILES
27 nM	COc1ccc2c(c1)CCN(C1=Nc3c(Cl)cccc3C(C)N1)C2=O (stereo unspecified)
50 nM	O=C(O)C1NC(c2ccc(N3CCCC3)nc2)=Nc2c(Cl)cccc21 (stereo unspecified)
